Data reported in ChEMBL document CHEMBL1201862, “PubChem BioAssay data set” (2004).
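Each compound was tested at five concentrations against cells in 96-well plates for 48 hours. GI50 marks 50% less growth.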 The source made the active and inactive calls. No stated cut-off is given here; in the data, active = GI50 up to about 1.1 µM and inactive = higher.

Tests used:
Assay in all cases: NCI tumour cell line growth inhibition, 48 h
LOX IMVI = tested on: LOX IMVI
RPMI-8226 = tested on: RPMI-8226
UACC-62 = tested on: UACC-62
UACC-257 = tested on: UACC-257
786-0 = tested on: 786-0
UO-31 = tested on: UO-31
A549 = tested on: A549
NCI-H23 = tested on: NCI-H23
HL-60 = tested on: HL-60
IGROV-1 = tested on: IGROV-1
NCI-H522 = tested on: NCI-H522
HOP-62 = tested on: HOP-62
SN12C = tested on: SN12C
M14 = tested on: M14
K562 = tested on: K562
TK-10 = tested on: TK-10
CAKI-1 = tested on: CAKI-1
ACHN = tested on: ACHN
Malme-3M = tested on: Malme-3M

Measured: GI50

CC1(n2nc(-c3ccccc3)n(-c3ccccc3)c2=O)CSC1
inactive: LOX IMVI > 100 µM | RPMI-8226 > 100 µM | UACC-62 > 100 µM | UACC-257 > 100 µM | 786-0 > 100 µM | UO-31 > 100 µM | A549 > 100 µM | NCI-H23 > 100 µM | HL-60 > 100 µM | IGROV-1 > 100 µM | NCI-H522 > 100 µM | HOP-62 > 100 µM | SN12C > 100 µM | M14 > 100 µM | K562 > 100 µM | TK-10 > 100 µM | CAKI-1 > 100 µM | ACHN > 100 µM

Clc1ccc2c(Cl)nc(-c3ccccc3)nc2c1
inactive: Malme-3M 24.3 µM | RPMI-8226 10 µM | UACC-62 19.4 µM | UACC-257 26.2 µM | UO-31 24.5 µM | NCI-H23 10.7 µM | HL-60 20.2 µM | IGROV-1 24.5 µM | HOP-62 53.2 µM | SN12C 21.8 µM | K562 23.4 µM | TK-10 46.1 µM | CAKI-1 23.6 µM | ACHN 20.9 µM

O=Cc1cn(C(=O)c2ccccc2)c2ccccc12
inactive: Malme-3M > 100 µM | RPMI-8226 37.2 µM | UACC-62 > 100 µM | UACC-257 83 µM | 786-0 > 100 µM | UO-31 36.6 µM | A549 > 100 µM | NCI-H23 80.4 µM | HL-60 28.7 µM | IGROV-1 > 100 µM | HOP-62 > 100 µM | M14 > 100 µM | K562 70 µM | TK-10 > 100 µM | CAKI-1 82.8 µM | ACHN > 100 µM

CCOC(=O)[C@H]1Nc2ccc(Cl)cc2[C@H]2OCC[C@@H]12
inactive: LOX IMVI > 100 µM | Malme-3M > 100 µM | UACC-62 > 100 µM | UACC-257 > 100 µM | 786-0 > 100 µM | A549 > 100 µM | NCI-H23 > 100 µM | HL-60 > 100 µM | IGROV-1 > 100 µM | NCI-H522 > 100 µM | HOP-62 > 100 µM | SN12C > 100 µM | M14 > 100 µM | K562 > 100 µM | TK-10 > 100 µM | CAKI-1 > 100 µM | ACHN > 100 µM

COc1cc(OC)c(C#N)c(OC)c1C
inactive: LOX IMVI > 100 µM | Malme-3M > 100 µM | UACC-62 > 100 µM | UACC-257 > 100 µM | 786-0 > 100 µM | UO-31 > 100 µM | A549 > 100 µM | NCI-H23 > 100 µM | HL-60 > 100 µM | HOP-62 > 100 µM | SN12C > 100 µM | K562 > 100 µM | TK-10 > 100 µM | CAKI-1 > 100 µM | ACHN > 100 µM

O=P(Nc1cccc(Cl)c1)(Oc1ccccc1)N(CCCl)CCCl (centres undefined)
inactive: Malme-3M 14.9 µM | UACC-62 11.6 µM | UACC-257 14.1 µM | UO-31 85.9 µM | A549 13.2 µM | NCI-H23 16.5 µM | HL-60 70.6 µM | IGROV-1 15.8 µM | NCI-H522 99.5 µM | HOP-62 16.6 µM | SN12C 14.9 µM | M14 15.2 µM | K562 99.3 µM | TK-10 13.7 µM | CAKI-1 13.9 µM | ACHN 16.7 µM

COC(=O)C(Cc1nc2ccccc2nc1O)C(=O)C(=O)Nc1ccc(F)cc1 (centres undefined)
inactive: LOX IMVI 41.3 µM | Malme-3M 28.8 µM | UACC-62 24.2 µM | UACC-257 > 100 µM | 786-0 25.4 µM | UO-31 > 100 µM | A549 > 100 µM | NCI-H23 34 µM | HL-60 45.5 µM | IGROV-1 53.5 µM | NCI-H522 10.3 µM | HOP-62 > 100 µM | SN12C 40.9 µM | M14 74.8 µM | TK-10 > 100 µM | CAKI-1 > 100 µM | ACHN > 100 µM

COc1ccc(/C=C/C(=N\NC(=O)c2ccccc2)c2sc(Nc3ccc([N+](=O)[O-])cc3)nc2C)cc1OC
inactive: LOX IMVI 3.75 µM | Malme-3M 19.2 µM | UACC-62 2.75 µM | UACC-257 12.6 µM | 786-0 10.5 µM | UO-31 15.6 µM | A549 10.6 µM | NCI-H23 > 10 µM | HL-60 2.62 µM | IGROV-1 > 10 µM | NCI-H522 4.24 µM | HOP-62 18.2 µM | SN12C 13.9 µM | M14 14.1 µM | K562 3.18 µM | TK-10 29.3 µM | CAKI-1 17.7 µM | ACHN 14.7 µM

C[P+](C)(C)c1ccccc1
inactive: LOX IMVI > 100 µM | Malme-3M > 100 µM | RPMI-8226 > 100 µM | UACC-62 > 100 µM | UACC-257 > 100 µM | 786-0 > 100 µM | UO-31 > 100 µM | A549 > 100 µM | NCI-H23 > 100 µM | HL-60 > 100 µM | IGROV-1 > 100 µM | HOP-62 > 100 µM | SN12C > 100 µM | M14 > 100 µM | K562 > 100 µM | TK-10 > 100 µM | CAKI-1 > 100 µM | ACHN > 100 µM

Cc1cc(N(CCC#N)CCC#N)ccc1/N=N/c1cccc(C(=O)O)c1
inactive: LOX IMVI > 100 µM | Malme-3M 83 µM | UACC-62 60.5 µM | UACC-257 > 100 µM | 786-0 > 100 µM | UO-31 > 100 µM | A549 > 100 µM | NCI-H23 > 100 µM | HL-60 > 100 µM | IGROV-1 > 100 µM | NCI-H522 38.8 µM | HOP-62 > 100 µM | SN12C > 100 µM | M14 > 100 µM | K562 > 100 µM | TK-10 > 100 µM | CAKI-1 > 100 µM | ACHN > 100 µM

COc1ccc(/C(Cl)=C(\CN(C)C)c2ccc(OC)c(OC)c2)cc1OC.[B]
inactive: LOX IMVI > 100 µM | RPMI-8226 > 100 µM | UACC-62 3.94 µM | UACC-257 > 100 µM | 786-0 15.9 µM | UO-31 > 100 µM | A549 > 100 µM | NCI-H23 95.1 µM | HL-60 > 100 µM | IGROV-1 > 100 µM | HOP-62 24.3 µM | SN12C > 100 µM | M14 > 100 µM | K562 > 100 µM | TK-10 13.7 µM | CAKI-1 > 100 µM | ACHN > 100 µM

O=C(c1ccc(O)cc1O)C1C(c2ccc(O)cc2)OC(c2ccc(O)cc2)C1C(=O)c1ccc(O)cc1O (centres undefined)
inactive: LOX IMVI 19.5 µM | Malme-3M 14.2 µM | UACC-257 20.5 µM | 786-0 5.38 µM | UO-31 18.7 µM | A549 > 100 µM | NCI-H23 30 µM | HL-60 17.8 µM | NCI-H522 16.5 µM | HOP-62 5.26 µM | SN12C > 10 µM | M14 18 µM | TK-10 14.7 µM | CAKI-1 45.6 µM | ACHN 22.2 µM
